# Experimental data from patent US20230123856A1, “5-FLUORONICOTINAMIDE DERIVATIVES AND USES THEREOF” (Tenaya Therapeutics, Inc., priority 2019, published 2023).
# Target: T1, HDAC6 (Homo sapiens, UniProt Q9UBN7)
# T1 sequence (Q9UBN7 1-1215): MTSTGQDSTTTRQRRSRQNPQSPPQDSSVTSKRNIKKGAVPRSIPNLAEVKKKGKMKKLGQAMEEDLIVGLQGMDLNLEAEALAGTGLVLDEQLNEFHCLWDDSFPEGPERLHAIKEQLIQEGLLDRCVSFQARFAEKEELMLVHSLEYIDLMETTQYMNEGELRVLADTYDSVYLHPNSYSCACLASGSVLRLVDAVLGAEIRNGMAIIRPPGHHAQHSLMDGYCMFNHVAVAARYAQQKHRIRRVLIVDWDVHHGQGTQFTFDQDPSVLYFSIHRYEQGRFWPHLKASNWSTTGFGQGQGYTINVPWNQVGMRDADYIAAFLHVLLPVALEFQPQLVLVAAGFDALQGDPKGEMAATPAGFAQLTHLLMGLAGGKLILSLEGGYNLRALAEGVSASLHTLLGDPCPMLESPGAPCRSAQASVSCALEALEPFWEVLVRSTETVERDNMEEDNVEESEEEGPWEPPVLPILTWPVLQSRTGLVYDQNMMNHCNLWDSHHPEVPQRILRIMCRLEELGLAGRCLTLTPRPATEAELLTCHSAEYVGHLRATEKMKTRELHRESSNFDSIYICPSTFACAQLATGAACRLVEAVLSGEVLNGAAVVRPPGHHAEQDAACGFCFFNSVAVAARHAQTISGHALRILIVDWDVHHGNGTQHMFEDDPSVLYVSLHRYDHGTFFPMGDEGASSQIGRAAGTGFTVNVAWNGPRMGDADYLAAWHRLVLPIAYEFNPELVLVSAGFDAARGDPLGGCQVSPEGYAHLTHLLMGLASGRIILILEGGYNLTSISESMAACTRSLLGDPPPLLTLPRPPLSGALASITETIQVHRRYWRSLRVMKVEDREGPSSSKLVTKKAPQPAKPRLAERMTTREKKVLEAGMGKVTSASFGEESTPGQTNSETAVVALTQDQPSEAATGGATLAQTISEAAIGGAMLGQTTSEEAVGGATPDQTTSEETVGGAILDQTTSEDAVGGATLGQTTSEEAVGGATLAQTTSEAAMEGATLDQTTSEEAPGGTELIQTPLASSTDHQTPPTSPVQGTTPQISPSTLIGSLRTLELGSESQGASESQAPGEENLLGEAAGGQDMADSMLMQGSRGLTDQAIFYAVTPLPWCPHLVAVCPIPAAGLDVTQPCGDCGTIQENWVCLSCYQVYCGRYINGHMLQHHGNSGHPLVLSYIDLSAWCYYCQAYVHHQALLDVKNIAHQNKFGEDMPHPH
# Assay: Biochemical luminescent HDAC-Glo I/II assay, HDAC6
# Conditions: recombinant HDAC6 protein, HDAC-Glo I/II luminescent substrate
row,Compound,IC50 [nM]
1,CN1CC[C@@H](Nc2ncc(C(=O)NO)cc2F)C1=O [Compound I-42B],41.7
2,COCCC1(Nc2ncc(C(=O)NO)cc2F)CC1 [Compound I-44],4.71
3,O=C(NO)c1cnc(NC2(c3ccccn3)COC2)c(F)c1 [Compound I-56],7.67
4,CN1CC[C@H](Nc2ncc(C(=O)NO)cc2F)C1=O [Compound I-42A],34.3
5,O=C(NO)c1cnc(Cn2c(N3CCOCC3)nc3ccccc32)c(F)c1 [Compound I-54],80.3
6,"O=C(NO)c1cnc(NC2(c3ncccc3F)CC2)c(F)c1 [Compound I-45, 5-fluoro-6-{[1-(3-fluoropyridin-2-yl)cyclopropyl]amino}-N-hydroxypyridine-3-carboxamide]",6.51
7,CO[C@H]1COC[C@@H]1Nc1ncc(C(=O)NO)cc1F [Compound I-38],5.67
8,"O=C(NO)c1cnc(NC2(c3ncccn3)CC2)c(F)c1 [Compound I-46, 5-fluoro-N-hydroxy-6-((1-(pyrimidin-2-yl)cyclopropyl)amino)nicotinamide]",29.2
9,Cc1nc2cccnc2n1Cc1ncc(C(=O)NO)cc1F [Compound I-53],8.69
10,O=C(NO)c1cnc(Cn2c(C(F)(F)F)nc3ccccc32)c(F)c1 [Compound I-49],5.11
11,"O=C(NO)c1cnc(OC2(c3ccccn3)COC2)c(F)c1 [III-2, 5-fluoro-N-hydroxy-6-{[3-(pyridin-2-yl)oxetan-3-yl]oxy}pyridine-3-carboxamide]",14.6
12,O=C(NO)c1cnc(N[C@@H]2CCNC2=O)c(F)c1 [Compound I-43B],25.7
13,O=C(NO)c1cnc(N[C@H]2CCNC2=O)c(F)c1 [Compound I-43A],51.1

# Compounds with a lower IC50, results first:
row,IC50 [nM],Compound
1,1.12,COCC1(Nc2ncc(C(=O)NO)cc2F)CC(F)(F)C1 [Compound I-39]
2,3.97,O=C(NO)c1cnc(NC2(C3CC3)CC2)c(F)c1 [Compound I-41]
3,2.18,O=C(NO)c1cnc(NC2(c3ccccn3)CCC2)c(F)c1 [Compound I-37]
4,1.94,Cc1c(C)n(Cc2ncc(C(=O)NO)cc2F)c2ncccc12 [Compound I-51]
5,3.88,"O=C(NO)c1cnc(Cn2ccc3cc(C(=O)NC4CC4)cnc32)c(F)c1 [Compound I-55, N-cyclopropyl-1-((3-fluoro-5-(hydroxycarbamoyl)pyridin-2-yl)methyl)-1H-pyrrolo[2,3-b]pyridine-5-carboxamide]"
6,4.36,CN1Cc2ccccc2N(Cc2ncc(C(=O)NO)cc2F)C1=O [Compound I-47]
7,2.27,O=C(NO)c1cnc(Cn2c3c(c4ccccc42)S(=O)(=O)CC3)c(F)c1 [Compound I-48]
8,3.36,CCC1(Nc2ncc(C(=O)NO)cc2F)COC1 [Compound I-40]
9,4.29,COC(=O)N(Cc1ncc(C(=O)NO)cc1F)c1ncccc1O [Compound I-52]
10,2.98,Cc1cc2cccnc2n1Cc1ncc(C(=O)NO)cc1F [Compound I-50]
